Results from patent US8933089B2, “HIV inhibiting 5-amido substituted pyrimidines” (Janssen R & D Ireland, priority 2006, dated 2015).

How the values were obtained:
Format in all cases: cell-based, HIV-1
HIV strain MDR = assay: Cellular anti-HIV assay in MT4 LTR-EGFP cells, MDR strain; settings: Human immunodeficiency virus 1, read-out: MDR pEC50 (converted)
Protocol: (§1) Because of the increasing emergence of drug resistant HIV strains, the present compounds were tested for their potency against clinically isolated HIV strains harbouring several mutations. These mutations are associated with resistance to reverse transcriptase inhibitors and result in viruses that show various degrees of phenotypic cross-resistance to the currently commercially available drugs such as for instance AZT and delavirdine.
(§2) The antiviral activity of the compound of the present invention has been evaluated in the presence of wild type HIV and HIV mutants bearing mutations at the reverse transcriptase gene. The activity of the compounds is evaluated using a cellular assay which was performed according to the following procedure.
(§3) The human T-cell line MT4 is engineered with Green Fluorescent Protein (GFP) and an HIV-specific promoter, HIV-1 long terminal repeat (LTR). This cell line is designated MT4 LTR-EGFP, and can be used for the in vitro evaluation of anti-HIV activity of investigational compounds. In HIV-1 infected cells, the Tat protein is produced which upregulates the LTR promotor and finally leads to stimulation of the GFP reporter production, allowing to measure ongoing HIV-infection fluorometrically. Analogously, MT4 cells are engineered with GFP and the constitutional cytomegalovirus (CMV) promotor. This cell line is designated MT4 CMV-EGFP, and can be used for the in vitro evaluation of cytotoxicity of investigational compounds. In this cell line, GFP levels are comparably to those of infected MT4 LTR-EGFP cells. Cytotoxic investigational compounds reduce GFP levels of mock-infected MT4 CMV-EGFP cells.
(§4) Effective concentration values such as 50% effective concentration (EC50) can be determined and are usually expressed in μM. An EC50 value is defined as the concentration of test compound that reduces the fluorescence of HIV-infected cells by 50%. The 50% cytotoxic concentration (CC50 in μM) is defined as the concentration of test compound that reduces fluorescence of the mock-infected cells by 50%. The ratio of CC50 to EC50 is defined as the selectivity index (SI) and is an indication of the selectivity of the anti-HIV activity of the inhibitor. The ultimate monitoring of HIV-1 infection and cytotoxicity is done using a scanning microscope. Image analysis allows very sensitive detection of viral infection. Measurements are done before cell necrosis, which usually takes place about five days after infection, in particular measurements are performed three days after infection.
(§5) The columns IIIB, L100I, etc. in the table list the pEC50 values against various strains IIIB, L100I, etc.
MDR refers to a strain that contains mutations L100I, K103N, Y181C, E138G, V1791, L2214F, V278V/I and A327A/V in HIV reverse transcriptase.

HIV strain Y181C = assay: Cellular anti-HIV assay in MT4 LTR-EGFP cells, mutant Y181C; settings: Human immunodeficiency virus 1, read-out: Y181C pEC50 (converted)
Protocol: as §1, §2, §3, §4, §5

HIV strain Y188L = assay: Cellular anti-HIV assay in MT4 LTR-EGFP cells, mutant Y188L; settings: Human immunodeficiency virus 1, read-out: Y188L pEC50 (converted)
Protocol: as §1, §2, §3, §4, §5

[1] = tested on: HIV strain IIIB (wild type); assay: Cellular anti-HIV assay in MT4 LTR-EGFP cells, strain IIIB (wild type); selectivity index versus cytotoxicity in mock-infected MT4 CMV-EGFP cells; settings: for EC50: Human immunodeficiency virus 1, 72 h, wild type HIV strain IIIB, MT4 LTR-EGFP cells, fluorescence, three days after infection, read-out: IIIB pEC50 (converted); for IIIB pSi: selectivity index = ratio of CC50 (mock-infected MT4 CMV-EGFP cells) to EC50 (IIIB), given as p value
Protocol: as §2, §3, §4, §5
Strain IIIB is wild type HIV strain

HIV strain K103N + Y181C = assay: Cellular anti-HIV assay in MT4 LTR-EGFP cells, mutant K103N + Y181C; settings: Human immunodeficiency virus 1, 72 h, read-out: K103N + Y181C pEC50 (converted)
Protocol: as §1, §2, §3, §4, §5

HIV strain K103N = assay: Cellular anti-HIV assay in MT4 LTR-EGFP cells, mutant K103N; settings: Human immunodeficiency virus 1, read-out: K103N pEC50 (converted)
Protocol: as §1, §2, §3, §4, §5

HIV strain L100I + K103N = assay: Cellular anti-HIV assay in MT4 LTR-EGFP cells, mutant L100I + K103N; settings: Human immunodeficiency virus 1, 72 h, read-out: L100I + K103N pEC50 (converted)
Protocol: as §1, §2, §3, §4, §5

HIV strain L100I = assay: Cellular anti-HIV assay in MT4 LTR-EGFP cells, mutant L100I; settings: Human immunodeficiency virus 1, read-out: L100I pEC50 (converted)
Protocol: as §1, §2, §3, §4, §5

SMILES	EC50 (HIV strain MDR)	EC50 (HIV strain Y181C)	EC50 (HIV strain Y188L)	EC50 [1]	IIIB pSi [1]	EC50 (HIV strain K103N + Y181C)	EC50 (HIV strain K103N)	EC50 (HIV strain L100I + K103N)	EC50 (HIV strain L100I)
Cc1cc(/C=C/C#N)cc(C)c1Nc1nc(Nc2ccc(C#N)cc2)ncc1C(=O)NCc1cccs1 [Compound 20]	2510 nM	39.8 nM	50.1 nM	5.01 nM	3.60	31.6 nM	5.01 nM	100 nM	15.8 nM
Cc1cc(/C=C/C#N)cc(C)c1Nc1nc(Nc2ccc(C#N)cc2)ncc1C(=O)NCC#N [Compound 21]	501 nM	15.8 nM	15.8 nM	15.8 nM	2.80	15.8 nM	5.01 nM	15.8 nM	3.98 nM
Cc1cc(/C=C/C#N)cc(C)c1Nc1nc(Nc2ccc(C#N)cc2)ncc1C(=O)NCCN(C)C [Compound 22]	2000 nM	15.8 nM	50.1 nM	0.794 nM	3.90	20 nM	0.631 nM	100 nM	20 nM
Cc1cc(/C=C/C#N)cc(C)c1Nc1nc(Nc2ccc(C#N)cc2)ncc1C(=O)NCc1cccc(Cl)c1 [Compound 25]	10000 nM	79.4 nM	50.1 nM	12.6 nM	3.00	31.6 nM	15.8 nM	39.8 nM	25.1 nM
Cc1cc(/C=C/C#N)cc(C)c1Nc1nc(Nc2ccc(C#N)cc2)ncc1C(=O)NCc1ccc(F)cc1 [Compound 26]	5010 nM	50.1 nM	79.4 nM	12.6 nM	3.00	39.8 nM	12.6 nM	316 nM	25.1 nM
Cc1cc(/C=C/C#N)cc(C)c1Nc1nc(Nc2ccc(C#N)cc2)ncc1C(=O)NCc1cccc(Br)c1 [Compound 29]	10000 nM	79.4 nM	158 nM	15.8 nM	3.00	100 nM	20 nM	126 nM	79.4 nM
Cc1cc(/C=C/C#N)cc(C)c1Nc1nc(Nc2ccc(C#N)cc2)ncc1C(=O)NCc1ccc(N(C)C)cc1 [Compound 30]	5010 nM	100 nM	316 nM	12.6 nM	>3.30	100 nM	15.8 nM	251 nM	100 nM
CC(=O)NCCNC(=O)c1cnc(Nc2ccc(C#N)cc2)nc1Nc1c(C)cc(/C=C/C#N)cc1C [Compound 33]	398 nM	50.1 nM	63.1 nM	15.8 nM	>3.20	12.6 nM	15.8 nM	15.8 nM	15.8 nM
Cc1cc(/C=C/C#N)cc(C)c1Nc1nc(Nc2ccc(C#N)cc2)ncc1C(=O)NCc1ccc(Br)cc1 [Compound 36]	10000 nM	126 nM	398 nM	25.1 nM	>3.00	126 nM	25.1 nM	794 nM	126 nM
Cc1cc(/C=C/C#N)cc(C)c1Nc1nc(Nc2ccc(C#N)cc2)ncc1C(=O)NC1CC1 [Compound 37]	1000 nM	12.6 nM	12.6 nM	2.51 nM	3.60	7.94 nM	1.58 nM	20 nM	5.01 nM
Cc1cc(/C=C/C#N)cc(C)c1Nc1nc(Nc2ccc(C#N)cc2)ncc1C(=O)NCCCN1CCCC1 [Compound 38]	2000 nM	20 nM	25.1 nM	0.794 nM	3.70	15.8 nM	1 nM	63.1 nM	25.1 nM
Cc1cc(/C=C/C#N)cc(C)c1Nc1nc(Nc2ccc(C#N)cc2)ncc1C(=O)NCC1CC1 [Compound 41]	1580 nM	15.8 nM	79.4 nM	5.01 nM	>3.70	20 nM	3.98 nM	50.1 nM	7.94 nM
Cc1cc(/C=C/C#N)cc(C)c1Nc1nc(Nc2ccc(C#N)cc2)ncc1C(=O)NCCCN(C)C [Compound 43]	3160 nM	25.1 nM	79.4 nM	12.6 nM	>3.30	79.4 nM	10 nM	126 nM	50.1 nM
Cc1cc(/C=C/C#N)cc(C)c1Nc1nc(Nc2ccc(C#N)cc2)ncc1C(=O)NCCc1ccccn1 [Compound 44]	1260 nM	10 nM	7.94 nM	2 nM	>4.10	10 nM	2.51 nM	31.6 nM	12.6 nM
Cc1cc(/C=C/C#N)cc(C)c1Nc1nc(Nc2ccc(C#N)cc2)ncc1C(=O)NCCc1ccc(S(N)(=O)=O)cc1 [Compound 47]	501 nM	50.1 nM	100 nM	20 nM	3.10	126 nM	25.1 nM	126 nM	63.1 nM
Cc1cc(/C=C/C#N)cc(C)c1Nc1nc(Nc2ccc(C#N)cc2)ncc1C(=O)NCCc1cccs1 [Compound 48]	10000 nM	126 nM	316 nM	20 nM	3.10	200 nM	20 nM	501 nM	126 nM
Cc1cc(/C=C/C#N)cc(C)c1Nc1nc(Nc2ccc(C#N)cc2)ncc1C(=O)NCCCO [Compound 49]	501 nM	79.4 nM	79.4 nM	15.8 nM	3.00	50.1 nM	15.8 nM	63.1 nM	20 nM
Cc1cc(/C=C/C#N)cc(C)c1Nc1nc(Nc2ccc(C#N)cc2)ncc1C(=O)NCCN1CCCC1 [Compound 51]	2510 nM	63.1 nM	100 nM	3.98 nM	3.00	63.1 nM	6.31 nM	126 nM	79.4 nM
Cc1cc(/C=C/C#N)cc(C)c1Oc1nc(Nc2ccc(C#N)cc2)ncc1C(=O)NCC1CCCO1 (stereo not drawn) [Compound 59]	3980 nM	31.6 nM	251 nM	2.51 nM	3.80	79.4 nM	6.31 nM	251 nM	63.1 nM
COCCNC(=O)c1cnc(Nc2ccc(C#N)cc2)nc1Oc1c(C)cc(/C=C/C#N)cc1C [Compound 60]	10000 nM	31.6 nM	158 nM	3.16 nM	3.50	63.1 nM	12.6 nM	316 nM	79.4 nM
Cc1cc(/C=C/C#N)cc(C)c1Oc1nc(Nc2ccc(C#N)cc2)ncc1C(=O)NCC#N [Compound 61]	3160 nM	20 nM	100 nM	3.16 nM	>3.90	25.1 nM	3.98 nM	50.1 nM	20 nM
